Reference: US20130090385A1, “NOVEL SPECIFIC CASPASE-10 INHIBITORS” (MERCK PATENT GESELLSCHAFT MIT BESCHRANKTER HAFTUNG, priority 2005, published 2013)
Where a SMILES comes first, the peptide text is derived from it. The star is where a group is joined. Cbz = O=C(OCc1ccccc1)*; CH2F = FC*

Key:
[1] = molecular target: T1, Recombinant human caspase-2 (Homo sapiens, UniProt P42575); assay: delayed-time fluorescence caspase inhibition test, caspase-2
T1 sequence (P42575 1-452): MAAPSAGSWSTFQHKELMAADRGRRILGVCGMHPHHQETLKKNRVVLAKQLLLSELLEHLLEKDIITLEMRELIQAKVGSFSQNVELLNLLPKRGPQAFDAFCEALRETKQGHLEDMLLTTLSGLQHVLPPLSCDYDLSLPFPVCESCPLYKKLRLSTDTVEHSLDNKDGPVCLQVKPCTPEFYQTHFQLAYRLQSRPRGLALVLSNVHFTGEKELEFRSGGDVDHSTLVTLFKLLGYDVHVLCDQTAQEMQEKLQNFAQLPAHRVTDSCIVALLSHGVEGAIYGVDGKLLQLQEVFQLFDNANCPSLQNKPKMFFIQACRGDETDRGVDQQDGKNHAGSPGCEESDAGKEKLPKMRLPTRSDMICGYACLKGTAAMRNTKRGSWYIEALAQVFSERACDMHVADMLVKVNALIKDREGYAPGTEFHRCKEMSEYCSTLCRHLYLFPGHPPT
Method: (§1) The substrate used is a tetrapeptide specific to this caspase, having at one of its ends a fluorescent europium marker (W1284) and at the other end a europium chelate fluorescence quencher (QSy-7): Eu-W1284-CIETDK-QSy-7.
(§2) The caspase cleaves the substrate, releasing the quencher. Thus, by excitation at 340 nm, the signal emitted by the fluorescence of the europium is read by WALLAC Victor^2 reader at 615 nm.
(§3) They are ready for use or may be divided into aliquots and stored at −80° C.. […] 20 μl of this solution are distributed per well of the assay plate. […] The assay is performed with 1 U of enzyme per well, by distributing 20 μl of the diluted solution per well. • The standard inhibitors: The standard inhibitors are dissolved in DMSO to a concentration of 10 mM. They are tested at IC20 and at IC50 on the caspases they inhibit (see following table).
(§4) They are then distributed in the wells using this solution to reach the final concentration of IC20 or IC50, i.e. 3 μl in 33 μl of final reaction volume (dilution 1/11). Thus, the final concentration of DMSO in the well is 0.3% (v/v) final. […] An intermediate dilution (1/6.6) is prepared in DMSO by diluting 10 μl of the concentrated solution in 66 μl of DMSO (final volume). […] The inhibitors are then distributed in the wells to reach the final screening concentration (10 μM), i.e. 3 μl in 33 μl of final reaction volume (dilution 1/11) and a final concentration of DMSO of 0.3% (v/v) in the well. • Protocol:
(§5) The incubation takes place for 3 hours 30 minutes at room temperature before reading the fluorescence in delayed time on the WALLAC Victor^2 reader with the filters corresponding to the fluorescence of europium (excitation filter: 340 nm, emission filter: 615 nm).
(§6) The inhibitors are diluted using solutions with concentrations of less than 20 mM in DMSO, and then prediluted in the caspase buffer. […] The specificity factor for caspase-10 is calculated as the following ratio:

[2] = molecular target: T2, Recombinant human caspase-3 (Homo sapiens, UniProt P42574); assay: delayed-time fluorescence caspase inhibition test, caspase-3
T2 sequence (P42574 29-277): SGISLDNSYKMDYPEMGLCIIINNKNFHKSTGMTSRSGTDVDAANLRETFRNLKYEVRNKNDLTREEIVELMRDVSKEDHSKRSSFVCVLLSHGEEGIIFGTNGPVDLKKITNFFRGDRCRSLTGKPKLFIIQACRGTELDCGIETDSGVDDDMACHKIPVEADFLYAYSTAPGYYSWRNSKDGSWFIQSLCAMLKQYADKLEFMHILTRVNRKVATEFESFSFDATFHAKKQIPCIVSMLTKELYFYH
Method: as §1, §2
20 μl of this solution are distributed per well of the assay plate. […] The assay is performed with 1 U of enzyme per well, by distributing 20 μl of the diluted solution per well. • The standard inhibitors: The standard inhibitors are dissolved in DMSO to a concentration of 10 mM. They are tested at IC20 and at IC50 on the caspases they inhibit (see following table). The concentrations mentioned in the table are the final concentrations in the assay wells.
as §4
The volumes and the protocol were optimised for automated use.
as §5
The inhibitors are diluted using solutions with concentrations of less than 20 mM in DMSO, and then prediluted in the caspase buffer.

[3] = molecular target: T3, Recombinant human caspase-6 (Homo sapiens, UniProt P55212); assay: delayed-time fluorescence caspase inhibition test, caspase-6
T3 sequence (P55212 24-293): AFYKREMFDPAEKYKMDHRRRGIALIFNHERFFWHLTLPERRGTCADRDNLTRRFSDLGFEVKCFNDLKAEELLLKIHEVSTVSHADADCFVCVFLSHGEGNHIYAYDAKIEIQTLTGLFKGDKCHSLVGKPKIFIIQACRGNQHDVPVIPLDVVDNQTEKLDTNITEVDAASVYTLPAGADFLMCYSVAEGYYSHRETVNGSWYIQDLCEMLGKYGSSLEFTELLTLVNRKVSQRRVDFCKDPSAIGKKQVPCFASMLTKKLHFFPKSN
Method: as §1, §2, §3, §4, §5, §6

[4] = molecular target: Recombinant human caspase-8 (Homo sapiens, UniProt Q14790); assay: delayed-time fluorescence caspase inhibition test, caspase-8
Method: as §1, §2, §3, §4, §5, §6

[5] = molecular target: T4, Recombinant human caspase-9 (Homo sapiens, UniProt P55211); assay: delayed-time fluorescence caspase inhibition test, caspase-9
T4 sequence (P55211 1-416): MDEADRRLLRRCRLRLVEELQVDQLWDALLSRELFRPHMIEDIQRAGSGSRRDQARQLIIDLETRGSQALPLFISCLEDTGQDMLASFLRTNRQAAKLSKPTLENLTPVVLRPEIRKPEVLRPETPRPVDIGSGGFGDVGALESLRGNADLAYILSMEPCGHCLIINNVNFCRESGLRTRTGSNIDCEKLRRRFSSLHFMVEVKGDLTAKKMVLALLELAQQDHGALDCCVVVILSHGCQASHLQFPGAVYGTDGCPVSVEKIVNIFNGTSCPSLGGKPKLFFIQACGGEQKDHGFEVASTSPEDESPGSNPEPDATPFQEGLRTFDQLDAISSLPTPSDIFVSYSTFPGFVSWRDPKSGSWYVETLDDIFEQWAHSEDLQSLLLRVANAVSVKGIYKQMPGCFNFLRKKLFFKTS
Method: as §1, §2, §3, §4, §5, §6

[6] = molecular target: T5, Recombinant human caspase-10 (Homo sapiens, UniProt Q92851); assay: delayed-time fluorescence caspase inhibition test, caspase-10
T5 sequence (Q92851 220-521): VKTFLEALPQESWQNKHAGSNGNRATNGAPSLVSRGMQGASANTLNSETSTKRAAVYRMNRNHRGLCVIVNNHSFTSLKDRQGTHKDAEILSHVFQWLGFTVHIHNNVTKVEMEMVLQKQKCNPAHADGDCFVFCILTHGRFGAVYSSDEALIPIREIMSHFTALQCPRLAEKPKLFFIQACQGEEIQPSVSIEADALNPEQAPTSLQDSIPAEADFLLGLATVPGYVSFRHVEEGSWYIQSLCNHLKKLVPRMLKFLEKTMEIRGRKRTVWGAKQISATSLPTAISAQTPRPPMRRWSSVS
Method: as §1, §2, §3, §4, §5, §6

[7] = read-out: IC20 of standard inhibitor

Chain of Recombinant human caspase-8 (Q14790 217-479): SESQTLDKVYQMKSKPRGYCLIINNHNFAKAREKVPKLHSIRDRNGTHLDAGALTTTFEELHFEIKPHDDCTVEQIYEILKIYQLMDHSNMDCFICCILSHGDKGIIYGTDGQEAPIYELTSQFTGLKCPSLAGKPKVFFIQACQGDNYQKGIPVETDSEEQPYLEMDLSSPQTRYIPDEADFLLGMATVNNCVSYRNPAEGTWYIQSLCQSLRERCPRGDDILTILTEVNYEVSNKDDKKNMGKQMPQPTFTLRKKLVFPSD

Structure (SMILES)	IC50 [1] [µM]	IC50 [2] [µM]	IC50 [3] [µM]	IC50 [4] [µM]	IC50 [5] [µM]	IC50 [6] [µM]	IC20 [1, 7] [µM]	IC20 [4, 7] [µM]	IC20 [6, 7] [µM]	IC20 [3, 7] [µM]	IC20 [5, 7] [µM]
O=S(=O)(NCC1(Cc2ccc(CCOCC3CC3)cc2)CCC1)c1ccc(Cl)cc1Cl [Example 1, 2,4-Dichloro-N-[(1-{4-[2-(cyclopropylmethoxy)ethyl]benzyl}cyclobutyl)methyl]benzenesulfonamide]	> 200	> 200	> 200	> 200	> 200	0.22					
COc1ccc(S(=O)(=O)NCC2(Cc3ccc(CCOCC4CC4)cc3)CCC2)cc1 [Example 5, N-[(1-{4-[2-(cyclopropylmethoxy)ethyl]benzyl}cyclobutyl)methyl]-4-methoxy-benzenesulfonamide]	> 200	> 200	> 200	> 200	> 200	3.59					
O=S(=O)(NCC1(Cc2ccc(CCSC3CCCC3)cc2)CCC1)c1ccc(Cl)cc1Cl [Example 12, 2,4-dichloro-N-[(1-{4-[2-(cyclopentylthio)ethyl]benzyl}cyclobutyl)methyl]benzenesulfonamide]	> 200	> 200	> 200	> 200	> 200	0.216					
CSCCc1ccc(CC2(CNS(=O)(=O)c3ccc(Cl)cc3Cl)CCC2)cc1 [Example 17, 2,4-dichloro-N-[(1-{4-[2-(methylthio)ethyl]benzyl}cyclobutyl)methyl]benzenesulfonamide]	> 200	> 200	> 200	> 200	> 200	0.214					
O=S(=O)(NCC1(Cc2ccc(CCS(=O)(=O)C3CCCC3)cc2)CCC1)c1ccc(Cl)cc1Cl [Example 22, 2,4-dichloro-N-[(1-{4-[2-(cyclopentylsulfonyl)ethyl]benzyl}cyclobutyl)methyl]benzenesulfonamide]	> 200	> 200	> 200	> 200	> 200	0.705					

Results, then the compound that gave them:

IC50 [1] [µM]	IC50 [2] [µM]	IC50 [3] [µM]	IC50 [4] [µM]	IC50 [5] [µM]	IC50 [6] [µM]	IC20 [1, 7] [µM]	IC20 [4, 7] [µM]	IC20 [6, 7] [µM]	IC20 [3, 7] [µM]	IC20 [5, 7] [µM]	Structure (SMILES)
> 200	> 200	> 200	> 200	> 200	0.235						CS(=O)(=O)CCc1ccc(CC2(CNS(=O)(=O)c3ccc(Cl)cc3Cl)CCC2)cc1 [Example 27, 2,4-dichloro-N-[(1-{4-[2-(methylsulfonyl)ethyl]benzyl}cyclobutyl)methyl]benzenesulfonamide]
> 200	> 200	> 200	> 200	> 200	4.46						CS(=O)(=O)CCc1ccc(CC2(CNS(=O)(=O)c3cccc4ccccc34)CCC2)cc1 [Example 30, N-[(1-{4-[2-(methylsulfonyl)ethyl]benzyl}cyclobutyl)methyl]naphthalene-1-sulfonamide]
						3					COC(=O)C[C@H](NC(=O)[C@H](C)NC(=O)[C@@H](NC(=O)[C@H](CC(=O)OC)NC(=O)OCc1ccccc1)C(C)C)C(=O)CF [z- DVAD - fmk, reference compound] (Cbz-D(OMe)VAD(OMe)-CH2F)
							1.5	0.08			CC[C@H](C)[C@H](NC(=O)OCc1ccccc1)C(=O)N[C@@H](CCC(=O)OC)C(=O)N[C@H](C(=O)N[C@@H](CC(=O)OC)C(=O)CF)[C@@H](C)O [z- IETD - fmk, z-IE(OMe)TD(OMe)-fmk, reference compound] (Cbz-IE(OMe)TD(OMe)-CH2F)
									3		CC[C@H](C)[C@H](NC(=O)[C@H](CCC(=O)OC)NC(=O)[C@@H](NC(=O)OCc1ccccc1)C(C)C)C(=O)N[C@@H](CC(=O)OC)C(=O)CF [z- VEID - fmk, z-VE(OMe)ID(OMe)-fmk, reference compound] (Cbz-VE(OMe)ID(OMe)-CH2F)
										0.2	COC(=O)CC[C@H](NC(=O)[C@H](CC(C)C)NC(=O)OCc1ccccc1)C(=O)N[C@@H](Cc1c[nH]cn1)C(=O)N[C@@H](CC(=O)OC)C(=O)CF [z-LEHD - fmk, z-LE(OMe)HD(OMe)-fmk, reference compound] (Cbz-LE(OMe)HD(OMe)-CH2F)
